Assay results taken from patent publication US20240092784A1, “CONDENSED HETEROCYCLIC COMPOUND” (NISSAN CHEMICAL CORPORATION, priority 2020, published 2024).

Molecular target: human SPR (Homo sapiens (Human), UniProt P35270)
Assay: Evaluation Example 2: Measurement of human SPR inhibitory activity (seven concentrations, sepiapterin absorbance at 420 nm)
Format: biochemical
Details: Evaluation Example 2, seven concentrations 0.14 nM to 100 nM, 240 minutes at room temperature, read-out: IC50
How it was run: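 Reactions ran 240 min at room temperature in 100 mM Tris-HCl pH 7.5 with 0.01% BSA. They contained tag-cleaved, E. coli-expressed full-length human SPR (diluted to 150 ng/mL), seven compound concentrations from 0.14 to 100 nM, and sepiapterin/NADPH added as a 120 μM/160 μM solution. Inhibition was calculated from sepiapterin absorbance at 420 nm.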

human SPR, sequence (P35270 whole entry): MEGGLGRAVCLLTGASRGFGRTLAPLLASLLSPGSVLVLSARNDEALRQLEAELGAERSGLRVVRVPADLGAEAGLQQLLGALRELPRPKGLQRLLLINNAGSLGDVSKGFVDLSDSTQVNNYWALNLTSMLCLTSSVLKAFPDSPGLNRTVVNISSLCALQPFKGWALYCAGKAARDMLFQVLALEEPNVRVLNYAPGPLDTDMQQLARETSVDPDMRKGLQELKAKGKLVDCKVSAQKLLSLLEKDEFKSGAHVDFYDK

Structure (SMILES)	IC50
COC[C@@H]1CCCN1C(=O)/C=C/c1c(C)nn2c(O)c(C(=O)NC3CC3)c(=O)n(CC(C)C)c12 [Synthesis Example 613, (S,E)-N-Cyclopropyl-7-hydroxy-4-isobutyl-3-(3-(2-(methoxymethyl)pyrrolidin-1-yl)-3-oxoprop-1-en-1-yl)-2-methyl-5-oxo-4,5-dihydropyrazolo[1,5-a]pyrimidine-6-carboxamide]	1.04 nM
Cc1nn2c(O)c(C(=O)NC3CC3)c(=O)n(CC(C)C)c2c1/C=C/C(=O)N1CCC(C(F)(F)F)C1 (centres unmarked) [Synthesis Example 614, (E)-N-Cyclopropyl-7-hydroxy-4-isobutyl-2-methyl-5-oxo-3-(3-oxo-3-(3-(trifluoromethyl)pyrrolidin-1-yl)prop-1-en-1-yl)-4,5-dihydropyrazolo[1,5-a]pyrimidine-6-carboxamide]	1.49 nM
Cc1nn2c(O)c(C(=O)NC3CC3)c(=O)n(CC(C)C)c2c1/C=C/C(=O)N1CCN(C2CC(F)(F)C2)CC1 [Synthesis Example 615, (E)-N-Cyclopropyl-3-(3-(4-(3,3-difluorocyclobutyl)piperazin-1-yl)-3-oxoprop-1-en-1-yl)-7-hydroxy-4-isobutyl-2-methyl-5-oxo-4,5-dihydropyrazolo[1,5-a]pyrimidine-6-carboxamide]	1.4 nM
Cc1nn2c(O)c(C(=O)NC3CC3)c(=O)n(CC(C)C)c2c1/C=C/C(=O)N1[C@H](C)CC[C@H]1C [Synthesis Example 616, N-Cyclopropyl-3-((E)-3-((2R,5R)-2,5-dimethylpyrrolidin-1-yl)-3-oxoprop-1-en-1-yl)-7-hydroxy-4-isobutyl-2-methyl-5-oxo-4,5-dihydropyrazolo[1,5-a]pyrimidine-6-carboxamide]	1.12 nM
Cc1nn2c(O)c(C(=O)NC3CC3)c(=O)n(CC(C)C)c2c1/C=C/C(=O)N1[C@@H](C)CC[C@@H]1C [Synthesis Example 617, N-Cyclopropyl-3-((E)-3-((2S,5S)-2,5-dimethylpyrrolidin-1-yl)-3-oxoprop-1-en-1-yl)-7-hydroxy-4-isobutyl-2-methyl-5-oxo-4,5-dihydropyrazolo[1,5-a]pyrimidine-6-carboxamide]	1.04 nM
Cc1nn2c(O)c(C(=O)NC3CC3)c(=O)n(CC(C)C)c2c1/C=C/C(=O)N1[C@H](C)CC[C@@H]1C [Synthesis Example 618, N-Cyclopropyl-3-((E)-3-(cis-2,5-dimethylpyrrolidin-1-yl)-3-oxoprop-1-en-1-yl)-7-hydroxy-4-isobutyl-2-methyl-5-oxo-4,5-dihydropyrazolo[1,5-a]pyrimidine-6-carboxamide]	1.8 nM
Cc1nn2c(O)c(C(=O)NC3CC3)c(=O)n(CC(C)C)c2c1/C=C/C(=O)N1CCCC1C1CC1 (centres unmarked) [Synthesis Example 619, (E)-N-Cyclopropyl-3-(3-(2-cyclopropylpyrrolidin-1-yl)-3-oxoprop-1-en-1-yl)-7-hydroxy-4-isobutyl-2-methyl-5-oxo-4,5-dihydropyrazolo[1,5-a]pyrimidine-6-carboxamide]	1.58 nM
COC[C@H]1CCN(C(=O)/C=C/c2c(C)nn3c(O)c(C(=O)NC4CC4)c(=O)n(CC(C)C)c23)C1 [Synthesis Example 620, (S,E)-N-Cyclopropyl-7-hydroxy-4-isobutyl-3-(3-(3-(methoxymethyl)pyrrolidin-1-yl)-3-oxoprop-1-en-1-yl)-2-methyl-5-oxo-4,5-dihydropyrazolo[1,5-a]pyrimidine-6-carboxamide]	1.17 nM
COC[C@@H]1CCN(C(=O)/C=C/c2c(C)nn3c(O)c(C(=O)NC4CC4)c(=O)n(CC(C)C)c23)C1 [Synthesis Example 621, (R,E)-N-Cyclopropyl-7-hydroxy-4-isobutyl-3-(3-(3-(methoxymethyl)pyrrolidin-1-yl)-3-oxoprop-1-en-1-yl)-2-methyl-5-oxo-4,5-dihydropyrazolo[1,5-a]pyrimidine-6-carboxamide]	1.42 nM
Cc1nn2c(O)c(C(=O)NC3CC3)c(=O)n(CC(C)C)c2c1/C=C/C(=O)N1CCC(C(F)F)C1 (centres unmarked) [Synthesis Example 622, (E)-N-Cyclopropyl-3-(3-(3-(difluoromethyl)pyrrolidin-1-yl)-3-oxoprop-1-en-1-yl)-7-hydroxy-4-isobutyl-2-methyl-5-oxo-4,5-dihydropyrazolo[1,5-a]pyrimidine-6-carboxamide]	1.03 nM
Cc1nn2c(O)c(C(=O)NC3CC3)c(=O)n(CC(C)C)c2c1/C=C/C(=O)N1CC[C@H](C(C)(C)O)C1 [Synthesis Example 623, (S,E)-N-Cyclopropyl-7-hydroxy-3-(3-(3-(2-hydroxypropan-2-yl)pyrrolidine-1-yl)-3-oxoprop-1-en-1-yl)-4-isobutyl-2-methyl-5-oxo-4,5-dihydropyrazolo[1,5-a]pyrimidine-6-carboxamide]	1.27 nM
Cc1nn2c(O)c(C(=O)NC3CC3)c(=O)n(CC(C)(C)C)c2c1/C=C/C(=O)N1[C@@H](C)COC[C@@H]1C [Synthesis Example 624, N-Cyclopropyl-3-((E)-3-((3S,5S)-3,5-dimethylmorpholino)-3-oxoprop-1-en-1-yl)-7-hydroxy-2-methyl-4-neopentyl-5-oxo-4,5-dihydropyrazolo[1,5-a]pyrimidine-6-carboxamide]	0.98 nM
Cc1nn2c(O)c(C(=O)NC3CC3)c(=O)n(CC(C)(C)C)c2c1/C=C/C(=O)N1CCOC[C@@H]1C [Synthesis Example 625, (S,E)-N-Cyclopropyl-7-hydroxy-2-methyl-3-(3-(3-methylmorpholino)-3-oxoprop-1-en-1-yl)-4-neopentyl-5-oxo-4,5-dihydropyrazolo[1,5-a]pyrimidine-6-carboxamide]	1.05 nM
CCc1nn2c(O)c(C(=O)NC3CC3)c(=O)n(CC(C)C)c2c1/C=C/C(=O)N1[C@@H](C)COC[C@@H]1C [Synthesis Example 626, N-Cyclopropyl-3-((E)-3-((3S,5S)-3,5-dimethylmorpholino)-3-oxoprop-1-en-1-yl)-2-ethyl-7-hydroxy-4-isobutyl-5-oxo-4,5-dihydropyrazolo[1,5-a]pyrimidine-6-carboxamide]	0.87 nM
Cc1nn2c(O)c(C(=O)NC3CC3)c(=O)n(CC(C)(C)C)c2c1/C=C/C(=O)N1CCC(F)(F)C1 [Synthesis Example 627, (E)-N-Cyclopropyl-3-(3-(3,3-difluoropyrrolidin-1-yl)-3-oxoprop-1-en-1-yl)-7-hydroxy-2-methyl-4-neopentyl-5-oxo-4,5-dihydropyrazolo[1,5-a]pyrimidine-6-carboxamide]	0.94 nM
Cc1nn2c(O)c(C(=O)NC3CC3)c(=O)n(CC(C)C)c2c1/C=C/C(=O)N1C[C@H]2COC[C@H]2C1 [Synthesis Example 628, N-Cyclopropyl-7-hydroxy-4-isobutyl-2-methyl-5-oxo-3-((E)-3-oxo-3-((3aR,6aS)-tetrahydro-1H-furo[3,4-c]pyrrol-5(3H)-yl)prop-1-en-1-yl)-4,5-dihydropyrazolo[1,5-a]pyrimidine-6-carboxamide]	0.84 nM
Cc1nn2c(O)c(C(=O)NC3CC3)c(=O)n(CC(C)C)c2c1/C=C/C(=O)N1CCC[C@@H]1C(C)C [Synthesis Example 629, (R,E)-N-Cyclopropyl-7-hydroxy-4-isobutyl-3-(3-(2-isopropylpyrrolidin-1-yl)-3-oxoprop-1-en-1-yl)-2-methyl-5-oxo-4,5-dihydropyrazolo[1,5-a]pyrimidine-6-carboxamide]	1.14 nM
Cc1nn2c(O)c(C(=O)NC3CC3)c(=O)n(CC(C)C)c2c1/C=C/C(=O)N1CCC[C@H]1C(C)C [Synthesis Example 630, (S,E)-N-Cyclopropyl-7-hydroxy-4-isobutyl-3-(3-(2-isopropylpyrrolidin-1-yl)-3-oxoprop-1-en-1-yl)-2-methyl-5-oxo-4,5-dihydropyrazolo[1,5-a]pyrimidine-6-carboxamide]	1.24 nM
Cc1nn2c(O)c(C(=O)NC3CC3)c(=O)n(CC(C)C)c2c1/C=C/C(=O)N1CCCC12CCOCC2 [Synthesis Example 631, (E)-N-Cyclopropyl-7-hydroxy-4-isobutyl-2-methyl-5-oxo-3-(3-oxo-3-(8-oxa-1-azaspiro[4.5]decan-1-yl)prop-1-en-1-yl)-4,5-dihydropyrazolo[1,5-a]pyrimidine-6-carboxamide]	0.66 nM
Cc1nn2c(O)c(C(=O)NC3CC3)c(=O)n(CC(C)C)c2c1/C=C/C(=O)N1CCC[C@@H]1C(F)F [Synthesis Example 632, (R,E)-N-Cyclopropyl-3-(3-(2-(difluoromethyl)pyrrolidin-1-yl)-3-oxoprop-1-en-1-yl)-7-hydroxy-4-isobutyl-2-methyl-5-oxo-4,5-dihydropyrazolo[1,5-a]pyrimidine-6-carboxamide]	1.51 nM
Cc1nn2c(O)c(C(=O)NC3CC3)c(=O)n(CC(C)C)c2c1/C=C/C(=O)N1CCC[C@H]1c1cccnc1 [Synthesis Example 633, (S,E)-N-Cyclopropyl-7-hydroxy-4-isobutyl-2-methyl-5-oxo-3-(3-oxo-3-(2-(pyridin-3-yl)pyrrolidin-1-yl)prop-1-en-1-yl)-4,5-dihydropyrazolo[1,5-a]pyrimidine-6-carboxamide]	0.91 nM
Cc1nn2c(O)c(C(=O)NC3CC3)c(=O)n(CC(C)C)c2c1/C=C/C(=O)N1CCC[C@H]1C(F)F [Synthesis Example 634, (S,E)-N-Cyclopropyl-3-(3-(2-(difluoromethyl)pyrrolidin-1-yl)-3-oxoprop-1-en-1-yl)-7-hydroxy-4-isobutyl-2-methyl-5-oxo-4,5-dihydropyrazolo[1,5-a]pyrimidine-6-carboxamide]	1.21 nM
Cc1nn2c(O)c(C(=O)NC3CC3)c(=O)n(CC(C)C)c2c1/C=C/C(=O)N1CCC[C@@H]1c1ccccn1 [Synthesis Example 635, (R,E)-N-Cyclopropyl-7-hydroxy-4-isobutyl-2-methyl-5-oxo-3-(3-oxo-3-(2-(pyridin-2-yl)pyrrolidin-1-yl)prop-1-en-1-yl)-4,5-dihydropyrazolo[1,5-a]pyrimidine-6-carboxamide]	1.08 nM
